The values below come from ChEMBL document CHEMBL1149456, “Substituted 4-hydroxyphenyl sulfonamides as pathway-selective estrogen receptor ligands” (Bioorg Med Chem Lett, 2006).

Assay [1] has as its target T1, Estrogen receptor (Homo sapiens, UniProt P03372).
T1 sequence (P03372 whole entry): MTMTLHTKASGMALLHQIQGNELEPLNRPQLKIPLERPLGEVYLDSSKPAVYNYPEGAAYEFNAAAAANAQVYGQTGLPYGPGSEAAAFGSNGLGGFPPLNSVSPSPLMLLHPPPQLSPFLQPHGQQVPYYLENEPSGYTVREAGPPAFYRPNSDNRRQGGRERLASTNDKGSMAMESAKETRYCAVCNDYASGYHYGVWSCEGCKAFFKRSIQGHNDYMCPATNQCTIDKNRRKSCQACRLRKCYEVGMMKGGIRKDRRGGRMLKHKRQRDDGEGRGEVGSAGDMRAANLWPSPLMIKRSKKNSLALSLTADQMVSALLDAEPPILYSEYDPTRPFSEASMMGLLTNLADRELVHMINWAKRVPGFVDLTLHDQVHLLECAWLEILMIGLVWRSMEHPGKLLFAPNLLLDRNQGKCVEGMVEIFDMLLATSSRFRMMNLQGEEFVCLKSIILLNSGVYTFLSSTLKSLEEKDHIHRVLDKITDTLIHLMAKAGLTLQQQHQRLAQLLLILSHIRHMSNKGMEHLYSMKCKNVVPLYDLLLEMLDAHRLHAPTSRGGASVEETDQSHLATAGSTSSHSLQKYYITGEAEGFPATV
Briefly: Effect on binding to ER in Ad5-wt-ER-infected HAECT1 cells by creatine kinase expression. The class given is functional, cell-based.

Assay [2] concerns the target T1, Estrogen receptor. The assay is described as follows: Inhibition of binding to ER in Ad5-wt-ER-infected HAECT1 cells by NF-kappaB-mediated luciferase reporter. Format: functional, cell-based. (Reporter assays use an easily measured gene product as a stand-in for the process of interest.)

For orientation: EC50 means the midpoint of the concentration-response curve. What is called IC50 is the midpoint of a concentration-inhibition curve. For `CCCN(c1ccccc1)S(=O)(=O)c1ccc(O)cc1`, at Estrogen receptor [1] (read-out: EC50), the EC50 was found to be 1430 nM. Moreover, on Estrogen receptor [2] (read-out: IC50), the IC50 stood at 303 nM.
In the case of `CCN(c1ccccc1Br)S(=O)(=O)c1ccc(O)cc1`, the EC50 at Estrogen receptor [1] (read-out: EC50) was 378 nM. Also, at Estrogen receptor [2] (read-out: IC50), the IC50 stood at 90 nM.
On the same counts, the results for `CCCN(c1ccccc1Br)S(=O)(=O)c1ccc(O)c(C)c1` are 480 nM and 40 nM.
`CCN(c1ccccc1)S(=O)(=O)c1ccc(O)cc1`: at Estrogen receptor [1] (read-out: EC50), the EC50 was found to be 1600 nM. Also, on Estrogen receptor [2] (read-out: IC50), the IC50 came to 404 nM.
With `CCCN(c1ccccc1C(F)(F)F)S(=O)(=O)c1ccc(O)cc1`, the half-maximal effective concentration (EC50) on Estrogen receptor [1] (read-out: EC50) is 243 nM. For the same compound, on Estrogen receptor [2] (read-out: IC50), the IC50 turned out to be 54 nM.
For `CCN(c1ccccc1)S(=O)(=O)c1ccc(O)c(OC)c1`, the IC50 result at Estrogen receptor [2] (haect1) was “Not Active”.
On to `CCCN(c1ccccc1-c1ccccc1)S(=O)(=O)c1ccc(O)c(C)c1`, for which the EC50 on Estrogen receptor [1] (read-out: EC50) is more than 2890 nM. For the same compound, the IC50 on Estrogen receptor [2] (read-out: IC50) came out at 253 nM.
The corresponding values for `O=S(=O)(c1ccc(O)cc1)N(c1ccccc1)C1CCCCC1` are 534 nM and 866 nM.
The corresponding values for `CCCN(c1ccccc1F)S(=O)(=O)c1ccc(O)cc1` are 161 nM and 74 nM.
With `CCN(c1ccc(O)cc1)S(=O)(=O)c1ccc(O)cc1`, on Estrogen receptor [1] (read-out: EC50), the EC50 was 1390 nM. Besides, the half-inhibitory concentration (IC50) at Estrogen receptor [2] (read-out: IC50) was found to be 272 nM.
On to `CCN(c1cccc(OC)c1)S(=O)(=O)c1ccc(O)cc1`, for which, on Estrogen receptor [1] (read-out: EC50), the concentration for a half-maximal effect (EC50) is 830 nM. Further, the IC50 at Estrogen receptor [2] (read-out: IC50) is 1970 nM.
The corresponding values for `CCCCN(c1ccccc1)S(=O)(=O)c1ccc(O)cc1` are 705 nM and 317 nM.
The corresponding values for `CCCN(c1ccccc1C)S(=O)(=O)c1ccc(O)c(C)c1` are 923 nM and 109 nM.
On to `CN(c1ccccc1)S(=O)(=O)c1ccc(O)cc1`, for which the IC50 entry on Estrogen receptor [2] (haect1) is “Not Active”.
On to `O=S(=O)(c1ccc(O)cc1)N(Cc1ccccc1)c1ccccc1`, for which the EC50 on Estrogen receptor [1] (read-out: EC50) stood at 242 nM. Also, on Estrogen receptor [2] (read-out: IC50), the IC50 turned out to be 500 nM.
For the compound `CCCN(c1ccccc1Br)S(=O)(=O)c1ccc(O)c(C(F)(F)F)c1`, the 50% effective concentration (EC50) entry at Estrogen receptor [1] (haect1) was “Not Active”. At Estrogen receptor [2] (read-out: IC50), the IC50 worked out at 60 nM.
Turning to `CCN(c1ccccc1OC)S(=O)(=O)c1ccc(O)cc1`, the EC50 on Estrogen receptor [1] (read-out: EC50) stood at 2170 nM. Further, the IC50 on Estrogen receptor [2] (read-out: IC50) was found to be 830 nM.
In the case of `CCN(c1ccc(OC)cc1)S(=O)(=O)c1ccc(O)cc1`, at Estrogen receptor [2] (haect1), the IC50 result was “Not Active”.
`O=S1(=O)c2ccc(O)cc2CCN1c1ccccc1Cl`: on Estrogen receptor [1] (haect1), the EC50 result is given as “Not Active”. Besides, the IC50 at Estrogen receptor [2] (read-out: IC50) is 892 nM.
With `CCCN(c1ccccc1Br)S(=O)(=O)c1ccc(O)cc1`, the EC50 at Estrogen receptor [1] (read-out: EC50) was 151 nM. In addition, at Estrogen receptor [2] (read-out: IC50), the IC50 came out at 26 nM.
The corresponding values for `CC(C)N(c1ccccc1)S(=O)(=O)c1ccc(O)cc1` are 1990 nM and 871 nM.
In the case of `O=S(=O)(c1ccc(O)cc1)N(c1ccccc1)c1ccccc1`, the EC50 on Estrogen receptor [1] (read-out: EC50) was found to be 1540 nM. In addition, the IC50 at Estrogen receptor [2] (read-out: IC50) turned out to be 410 nM.
The corresponding values for `CCCN(c1ccccc1Cl)S(=O)(=O)c1ccc(O)c(C)c1` are 650 nM and 51 nM.
Turning to `O=S(=O)(c1ccc(O)cc1)N(CCO)c1ccccc1`, the IC50 result at Estrogen receptor [2] (haect1) is “Not Active”.
Consider `O=S(=O)(Nc1ccccc1)c1ccc(O)cc1`, for which, on Estrogen receptor [2] (haect1), the IC50 entry is reported as “Not Active”.
Consider `CCCN(c1c(C)cccc1CC)S(=O)(=O)c1ccc(O)c(C)c1`, for which, at Estrogen receptor [1] (read-out: EC50), the EC50 worked out at 12 nM. At Estrogen receptor [2] (read-out: IC50), the IC50 worked out at 7 nM.
The corresponding values for `CCCN(c1c(C)cccc1Cl)S(=O)(=O)c1ccc(O)c(C)c1` are 153 nM and 26 nM.
The corresponding values for `CCCN(c1c(C)cccc1Cl)S(=O)(=O)c1ccc(O)cc1` are 63 nM and 24 nM.
On the same counts, the results for `CC(C)(C)CN(c1ccccc1)S(=O)(=O)c1ccc(O)cc1` are more than 2500 nM and 1370 nM.
`CCCN(c1c(C)cccc1C)S(=O)(=O)c1ccc(O)c(C)c1`: the EC50 at Estrogen receptor [1] (read-out: EC50) was 75 nM. Also, the IC50 at Estrogen receptor [2] (read-out: IC50) worked out at 14 nM.
On the same counts, the results for `CCCN(c1ccccc1Cl)S(=O)(=O)c1ccc(O)cc1` are 144 nM and 42 nM.
With `O=S(=O)(c1ccc(O)cc1)N1CCCc2ccccc21`, the IC50 entry at Estrogen receptor [2] (haect1) was “Not Active”.
On to `CCCN(c1c(CC)cccc1CC)S(=O)(=O)c1ccc(O)c(C)c1`, for which the EC50 on Estrogen receptor [1] (read-out: EC50) came to 213 nM. Moreover, the IC50 at Estrogen receptor [2] (read-out: IC50) turned out to be 5 nM.
Take `CCCN(c1c(Cl)cccc1Cl)S(=O)(=O)c1ccc(O)c(C)c1`: on Estrogen receptor [1] (read-out: EC50), the EC50 amounted to 378 nM. At Estrogen receptor [2] (read-out: IC50), the IC50 is 16 nM.
The corresponding values for `CC1CCc2ccccc2N1S(=O)(=O)c1ccc(O)cc1` (stereo not drawn) are more than 1000 nM and 479 nM.
As to `CCN(c1ccccc1)S(=O)(=O)c1ccc(O)c(C)c1`, the EC50 on Estrogen receptor [1] (read-out: EC50) turned out to be 2140 nM. Further, at Estrogen receptor [2] (read-out: IC50), the IC50 was determined as 328 nM.
On the same counts, the results for `C=CCN(c1ccccc1)S(=O)(=O)c1ccc(O)cc1` are 599 nM and 235 nM.
